Experimental data taken from patent publication US9247759B2, “Identification of human T2R receptors that respond to bitter compounds that elicit the bitter taste in compositions, and the use thereof in assays to identify compounds that inhibit (block) bitter taste in compositions and use thereof” (SENOMYX, INC., priority 2007, dated 2016).
Where two headings read alike, the source gives them in different places.

Biological target: hT2R8 (Homo sapiens (Human), UniProt Q9NYW2)
Experiment: hT2R8 antagonist high-throughput FLIPR assay, stable cell line with G16g44, agonist andrographolide
Format: cell-based
Summary of the method: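 Antagonist screen: compounds co-applied with agonist andrographolide at 200 μM, a dose giving 70–80% of maximal hT2R8 activation. Fluorescence measured by FLIPR in a stable HEK293 line expressing both hT2R8 and the promiscuous G16g44 protein.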

[1] = table after Example 12-37, read-out: hT2R8 IC50
[2] = read-out: IC50 on hT2R8 bitter receptor
[3] = table after Example 10-97, read-out: hT2R8 IC50
[4] = unit uM, read-out: IC50 on hT2R08 bitter receptor

Sequence of hT2R8 (Q9NYW2 whole entry): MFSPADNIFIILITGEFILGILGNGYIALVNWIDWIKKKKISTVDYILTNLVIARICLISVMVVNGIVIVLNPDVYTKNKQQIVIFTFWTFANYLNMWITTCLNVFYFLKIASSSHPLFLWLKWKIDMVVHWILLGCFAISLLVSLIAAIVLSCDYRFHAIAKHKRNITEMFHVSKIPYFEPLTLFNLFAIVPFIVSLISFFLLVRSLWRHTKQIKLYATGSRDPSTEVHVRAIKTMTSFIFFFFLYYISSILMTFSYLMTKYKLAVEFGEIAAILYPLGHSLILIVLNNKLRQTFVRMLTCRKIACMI

Compound | IC50 [2] | IC50 [3] | other results
Cc1noc(C)c1Cn1cc(N2C(=O)N(Cc3ccc(O)cc3)C(C)(C)C2=O)cn1 [Example 12-38, 3-(1-((3,5-dimethylisoxazol-4-yl)methyl)-1H-pyrazol-4-yl)-1-(4-hydroxybenzyl)-5,5-dimethylimidazolidine-2,4-dione] | – | – | IC50 [1]: 0.07 µM
Cc1noc(C)c1Cn1cc(N2C(=O)N(Cc3cccc(O)c3)C3(CC3)C2=O)cn1 [Example 12-15, 6-(1-((3,5-dimethylisoxazol-4-yl)methyl)-1H-pyrazol-4-yl)-4-(3-hydroxybenzyl)-4,6-diazaspiro[2.4]heptane-5,7-dione] | 0.02 µM | – | –
Cc1noc(C)c1Cn1cc(NC(=O)CCCc2ccccc2)cn1 [Example 4-56, N-(1-((3,5-dimethylisoxazol-4-yl)methyl)-1H-pyrazol-4-yl)-4-phenylbutanamide] | – | – | IC50 (Table A, read-out: hT2R8 IC50): 0.83 µM
COc1cccc(CCN2CC(=O)N(c3cnn(Cc4c(C)noc4C)c3)C2=O)c1 [Example 10-85, 3-(1-((3,5-dimethylisoxazol-4-yl)methyl)-1H-pyrazol-4-yl)-1-(3-methoxyphenethyl)imidazolidine-2,4-dione] | 0.16 µM | 0.158 µM | –
COC(=O)COc1cccc(CN2C(=O)N(c3cnn(Cc4c(C)noc4C)c3)C(=O)C2(C)C)c1 [Example 12-75, methyl 2-(3-((3-(1-((3,5-dimethylisoxazol-4-yl)methyl)-1H-pyrazol-4-yl)-5,5-dimethyl-2,4-dioxoimidazolidin-1-yl)methyl)phenoxy)acetate] | – | – | IC50 [1]: 0.53 µM
Cc1noc(C)c1CN1C(=O)N(c2cnn(Cc3c(C)noc3C)c2)C(=O)C1(C)C [Example 12-21, 1-((3,5-dimethylisoxazol-4-yl)methyl)-3-(1-((3,5-dimethylisoxazol-4-yl)methyl)-1H-pyrazol-4-yl)-5,5-dimethylimidazolidine-2,4-dione] | 0.08 µM | – | –
COc1ccccc1NC(=S)Nc1cnn(Cc2c(C)noc2C)c1 [Example 4-106, 1-(1-((3,5-dimethylisoxazol-4-yl)methyl)-1H-pyrazol-4-yl)-3-(2-methoxyphenyl)thiourea] | – | – | IC50 (Table A, read-out: hT2R8 IC50): 2.61 µM
COc1ccc(CCN2C(=O)N(c3cnn(Cc4c(C)noc4C)c3)C(=O)C2(C)C)cc1OC [Example 12-49, 1-(3,4-dimethoxyphenethyl)-3-(1-((3,5-dimethylisoxazol-4-yl)methyl)-1H-pyrazol-4-yl)-5,5-dimethylimidazolidine-2,4-dione] | – | – | IC50 [1]: 0.13 µM
Cc1noc(C)c1Cn1cc(-n2c(=O)n(Cc3ccccc3)n(Cc3ccccc3)c2=O)cn1 [Example 10-70, 1,2-dibenzyl-4-(1-((3,5-dimethylisoxazol-4-yl)methyl)-1H-pyrazol-4-yl)-1,2,4-triazolidine-3,5-dione] | 0.8 µM | 1.8 µM | –
Cc1noc(C)c1Cn1cc(N2C(=O)N[C@@H](Cc3ccccc3)C2=O)cn1 [Example 10-3, (S)-5-benzyl-3-(1-((3,5-dimethylisoxazol-4-yl)methyl)-1H-pyrazol-4-yl)imidazolidine-2,4-dione] | – | 0.113 µM | –
Cc1noc(C)c1Cn1cc(N2C(=O)[C@H]3Cc4ccc(O)cc4CN3C2=O)cn1 [Example 13-2, (R)-2-(1-((3,5-dimethylisoxazol-4-yl)methyl)-1H-pyrazol-4-yl)-7-hydroxy-10,10a-dihydroimidazo[1,5-b]isoquinoline-1,3(2H,5H)-dione] | 0.03 µM | – | –
Cc1noc(C)c1Cn1cc(N2CCCN(Cc3ccccc3)C2=O)cn1 [Example 9-5] | – | 3.43 µM | –
Cc1noc(C)c1Cn1cc(N2C(=O)NC(CC3CCCC3)C2=O)cn1 (stereo not shown) [Example 10-58, 5-(cyclopentylmethyl)-3-(1-((3,5-dimethylisoxazol-4-yl)methyl)-1H-pyrazol-4-yl)imidazolidine-2,4-dione] | 0.31 µM | 0.316 µM | –
Cc1noc(C)c1Cn1cc(N2C(=O)CN(CCc3cccc4ccccc34)C2=O)cn1 [Example 10-80] | 1.27 µM | 0.927 µM | –
Cc1noc(C)c1Cn1cc(N2C(=O)CN(Cc3cccc(F)c3)C2=O)cn1 [Example 10-27, 3-(1-((3,5-dimethylisoxazol-4-yl)methyl)-1H-pyrazol-4-yl)-1-(3-fluorobenzyl)imidazolidine-2,4-dione] | – | 0.058 µM | IC50 [4]: 0.06 µM
CO[C@@H](C(=O)Nc1cnn(Cc2c(C)noc2C)c1)c1ccccc1 [Example 4-68, (R)-N-(1-((3,5-dimethylisoxazol-4-yl)methyl)-1H-pyrazol-4-yl)-2-methoxy-2-phenylacetamide] | – | – | IC50 (Table A, read-out: hT2R8 IC50): 5 µM
COc1ccccc1CC(=O)Nc1cnn(Cc2c(C)noc2C)c1 [Example 4-35, N-(1-((3,5-dimethylisoxazol-4-yl)methyl)-1H-pyrazol-4-yl)-2-(2-methoxyphenyl)acetamide] | – | – | IC50 (Table A, read-out: hT2R8 IC50): 1.16 µM
Cc1noc(C)c1Cn1cc(NC(=O)c2ccc3ocnc3c2)cn1 [Example 4-72, N-(1-((3,5-dimethylisoxazol-4-yl)methyl)-1H-pyrazol-4-yl)benzo[d]oxazole-5-carboxamide] | – | – | IC50 (Table A, read-out: hT2R8 IC50): 2.6 µM

Compound | IC50 [2] | IC50 [3] | other results
Cc1noc(C)c1Cn1cc(N2C(=O)N(Cc3cc(C)n(C)n3)C(C)(C)C2=O)cn1 [Example 12-25, 1-((1,5-dimethyl-1H-pyrazol-3-yl)methyl)-3-(1-((3,5-dimethylisoxazol-4-yl)methyl)-1H-pyrazol-4-yl)-5,5-dimethylimidazolidine-2,4-dione] | 0.16 µM | – | –
COCCOc1ccccc1CN1CC(=O)N(c2cnn(Cc3c(C)noc3C)c2)C1=O [Example 10-16, 3-(1-((3,5-dimethylisoxazol-4-yl)methyl)-1H-pyrazol-4-yl)-1-(2-(2-methoxyethoxy)benzyl)imidazolidine-2,4-dione] | – | 0.131 µM | IC50 [4]: 0.1 µM
Cc1noc(C)c1Cn1cc(NC(=O)c2ccc(F)cc2)cn1 [Example 4-23, N-(1-((3,5-dimethylisoxazol-4-yl)methyl)-1H-pyrazol-4-yl)-4-fluorobenzamide] | – | – | IC50 (Table A, read-out: hT2R8 IC50): 1.56 µM
COc1ccc(CCN2CC(=O)N(c3cnn(Cc4c(C)noc4C)c3)C2=O)cc1 [Example 10-79, 3-(1-((3,5-dimethylisoxazol-4-yl)methyl)-1H-pyrazol-4-yl)-1-(4-methoxyphenethyl)imidazolidine-2,4-dione] | 0.04 µM | 0.044 µM | –
Cc1noc(C)c1Cn1cc(N2C(=O)N(Cc3ccccc3)C(C)(C)C2=O)cn1 [Example 12-67, 1-benzyl-3-(1-((3,5-dimethylisoxazol-4-yl)methyl)-1H-pyrazol-4-yl)-5,5-dimethylimidazolidine-2,4-dione] | – | – | IC50 [1]: 0.32 µM
COc1ccc(OC)c(C(=O)Nc2cnn(Cc3c(C)noc3C)c2)c1 [Example 4-9, N-(1-((3,5-dimethylisoxazol-4-yl)methyl)-1H-pyrazol-4-yl)-2,5-dimethoxybenzamide] | 0.17 µM | – | –
COc1cccc(CCN2C(=O)N(c3cnn(Cc4c(C)noc4C)c3)C(=O)C2(C)C)c1 [Example 12-60, 3-(1-((3,5-dimethylisoxazol-4-yl)methyl)-1H-pyrazol-4-yl)-1-(3-methoxyphenethyl)-5,5-dimethylimidazolidine-2,4-dione] | – | – | IC50 [1]: 0.25 µM
Cc1noc(C)c1Cn1cc(N2C(=O)CN(CCc3ccccc3F)C2=O)cn1 [Example 10-83, 3-(1-((3,5-dimethylisoxazol-4-yl)methyl)-1H-pyrazol-4-yl)-1-(2-fluorophenethyl)imidazolidine-2,4-dione] | 0.13 µM | 0.442 µM | –
Cc1noc(C)c1Cn1cc(N2C(=O)N(Cc3ccc(F)cc3F)C(C)(C)C2=O)cn1 [Example 12-74, 1-(2,4-difluorobenzyl)-3-(1-((3,5-dimethylisoxazol-4-yl)methyl)-1H-pyrazol-4-yl)-5,5-dimethylimidazolidine-2,4-dione] | – | – | IC50 [1]: 0.53 µM
CNc1cnn(Cc2c(C)noc2C)c1 [Example 4-63, 1-((3,5-dimethylisoxazol-4-yl)methyl)-N-methyl-1H-pyrazol-4-amine] | – | – | IC50 (Table A, read-out: hT2R8 IC50): 8.76 µM
Cc1noc(C)c1Cn1cc(N2C(=O)N(Cc3ccccc3C(=O)O)C(C)(C)C2=O)cn1 [Example 12-91, 2-((3-(1-((3,5-dimethylisoxazol-4-yl)methyl)-1H-pyrazol-4-yl)-5,5-dimethyl-2,4-dioxoimidazolidin-1-yl)methyl)benzoic acid] | – | – | IC50 [1]: 4.23 µM
Cc1noc(C)c1Cn1cc(N2C(=O)N(Cc3cccc(O)c3O)C(C)(C)C2=O)cn1 [Example 12-43, 1-(2,3-dihydroxybenzyl)-3-(1-((3,5-dimethylisoxazol-4-yl)methyl)-1H-pyrazol-4-yl)-5,5-dimethylimidazolidine-2,4-dione] | – | – | IC50 [1]: 0.1 µM
Cc1noc(C)c1Cn1cc(N2C(=O)N(Cc3cc(F)ccc3F)C(C)(C)C2=O)cn1 [Example 12-59, 1-(2,5-difluorobenzyl)-3-(1-((3,5-dimethylisoxazol-4-yl)methyl)-1H-pyrazol-4-yl)-5,5-dimethylimidazolidine-2,4-dione] | – | – | IC50 [1]: 0.24 µM
Cc1noc(C)c1Cn1cc(N2C(=O)C(Cc3ccccc3)N(C)C2=O)cn1 (stereo not shown) [Example 10-42, 5-benzyl-3-(1-((3,5-dimethylisoxazol-4-yl)methyl)-1H-pyrazol-4-yl)-1-methylimidazolidine-2,4-dione] | 0.15 µM | 0.017 µM | –
Cc1noc(C)c1Cn1cc(N2C(=O)CN(Cc3cccc(CN(C)C)c3)C2=O)cn1 [Example 10-37, 1-(3-((dimethylamino)methyl)benzyl)-3-(1-((3,5-dimethylisoxazol-4-yl)methyl)-1H-pyrazol-4-yl)imidazolidine-2,4-dione] | – | 1.22 µM | IC50 [4]: 1.2 µM
Cc1noc(C)c1Cn1cc(N2C(=O)CN(Cc3ccccc3[S+](C)[O-])C2=O)cn1 (stereo not shown) [Example 10-17, 33-(1-((3,5-dimethylisoxazol-4-yl)methyl)-1H-pyrazol-4-yl)-1-(2-(methylsulfinyl)benzyl)imidazolidine-2,4-dione] | – | 0.412 µM | IC50 [4]: 0.4 µM
Cc1noc(C)c1Cn1cc(N2C(=O)[C@@H](C)N(Cc3ccccc3)C2=O)cn1 [Example 12-37, (R)-1-benzyl-3-(1-((3,5-dimethylisoxazol-4-yl)methyl)-1H-pyrazol-4-yl)-5-methylimidazolidine-2,4-dione] | 0.01 µM | – | –
